Assay results: patent US8975291B2, “Indoles” (GlaxoSmithKline LLC, priority 2010, dated 2015)

Target: T1, EZH2 within the PRC2 complex (Homo sapiens, UniProt Q15910)
T1 construct: FLAG; made in house; host or cells: Sf9 cells
Assay: EZH2 methyltransferase scintillation proximity assay (SPA) with PRC2 complex
Assay type: biochemical
Details: EZH2 inhibition, foregoing or analogous assay; unit inferred; read-out: IC50
Procedure: Compounds contained herein were evaluated for their ability to inhibit the methyltransferase activity of EZH2 within the PRC2 complex. Human PRC2 complex was prepared by co-expressing each of the 5 member proteins (FLAG-EZH2, EED, SUZ12, RbAp48, AEBP2) in Sf9 cells followed by co-purification. Enzyme activity was measured in a scintillation proximity assay (SPA) where a tritiated methyl group is transferred from 3H-SAM to a lysine residue on Histone H3 of a mononucleosome, purified from HeLa cells. Mononucleosomes were captured on SPA beads and the resulting signal is read on a ViewLux plate reader.
Part A. Compound Preparation
• 1. Prepare 10 mM stock of compounds from solid in 100% DMSO. • 2. Set up an 11-point serial dilution (1:3 dilution, top concentration 10 mM) in 100% DMSO for each test compound in a 384 well plate leaving columns 6 and 18 for DMSO controls. • 3. Dispense […] of compound from the dilution plate into reaction plates (Grenier Bio-One, 384-well, Cat #784075). Part B. Reagent Preparation Prepare the following solutions: • 1. 50 mM Tris-HCl, pH 8: Per 1 L of base buffer, combine 1 M Tris-HCl, pH 8 (50 mL) and distilled water (950 mL). • 2. […] 2× Enzyme Solution: Per 10 mL of 2× Enzyme Solution, combine 1× Assay Buffer and PRC2 complex to provide a final enzyme concentration of 10 nM. • 4. SPA Bead Suspension: Per 1 mL of SPA Bead Suspension, combine PS-PEI coated LEADSeeker beads (40 mg) and ddH2O (1 mL) to provide a final concentration of 40 mg/mL. • 5. 2× Substrate Solution: Per 10 mL of 2× Substrate Solution, combine 1× Assay Buffer (9728.55 uL), 800 ug/mL mononucleosomes (125 uL), 1 mM cold SAM (4 uL), and 7.02 uM 3H-SAM (142.45 uL; 0.55 mCi/mL) to provide a final concentration of 5 ug/mL nucleosomes, 0.2 uM cold SAM, and 0.05 uM 3H-SAM. • 6. 2.67× Quench/Bead Mixture: Per 10 mL of 2.67× Quench/Bead Mixture, combine ddH2O (9358 uL), 10 mM cold SAM (267 uL), 40 mg/mL Bead Suspension (375 uL) to provide a final concentration of 100 uM cold SAM and 0.5 mg/mL SPA beads. Part C. Assay Reaction in 384-well Grenier Bio-One Plates Compound Addition • 1. Dispense […] of 100× Compound to test wells (as noted above). • 2. Dispense […] of 100% DMSO to columns 6 & 18 for high and low controls, respectively. Assay • 1. […] Dispense 5 uL/well of 2× Enzyme Solution to columns 1-17, 19-24. • 3. Spin assay plates for ˜1 minute at 500 rpm. • 4. Stack the assay plates, covering the top plate. • 5. Incubate the compound/DMSO with the enzyme for 30 minutes at room temperature. • 6. Dispense 5 uL/well of 2× Substrate Solution to columns 1-24. • 7. Spin assay plates for ˜1 minute at 500 rpm. • 8. Stack the assay plates, covering the top plate. • 9. Incubate the assay plates at room temperature for 1 hour. Quench/Bead Addition • 1. Dispense 5 uL/well of the 3× Quench/Bead Mixture to columns 1-24. • 2. Seal the top of each assay plate with adhesive TopSeal. • 3. Spin assay plates for ˜1 minute at 500 rpm. • 4. Equilibrate the plates for >20 min. Read Plates • 1. Read the assay plates on the Viewlux Plate Reader utilizing the 613 nm emission filter with a 300 s read time. Reagent addition can be done manually or with automated liquid handler. • The final DMSO concentration in this assay is 1%. • The positive control is in column 6; negative control is in column 18. • Final starting concentration of compounds is 100 μM. Part D. Data Analysis
Percent inhibition was calculated relative to the DMSO control for each compound concentration and the resulting values were fit using standard IC50 fitting parameters within the ABASE data fitting software package.

T1 sequence (Q15910 whole entry): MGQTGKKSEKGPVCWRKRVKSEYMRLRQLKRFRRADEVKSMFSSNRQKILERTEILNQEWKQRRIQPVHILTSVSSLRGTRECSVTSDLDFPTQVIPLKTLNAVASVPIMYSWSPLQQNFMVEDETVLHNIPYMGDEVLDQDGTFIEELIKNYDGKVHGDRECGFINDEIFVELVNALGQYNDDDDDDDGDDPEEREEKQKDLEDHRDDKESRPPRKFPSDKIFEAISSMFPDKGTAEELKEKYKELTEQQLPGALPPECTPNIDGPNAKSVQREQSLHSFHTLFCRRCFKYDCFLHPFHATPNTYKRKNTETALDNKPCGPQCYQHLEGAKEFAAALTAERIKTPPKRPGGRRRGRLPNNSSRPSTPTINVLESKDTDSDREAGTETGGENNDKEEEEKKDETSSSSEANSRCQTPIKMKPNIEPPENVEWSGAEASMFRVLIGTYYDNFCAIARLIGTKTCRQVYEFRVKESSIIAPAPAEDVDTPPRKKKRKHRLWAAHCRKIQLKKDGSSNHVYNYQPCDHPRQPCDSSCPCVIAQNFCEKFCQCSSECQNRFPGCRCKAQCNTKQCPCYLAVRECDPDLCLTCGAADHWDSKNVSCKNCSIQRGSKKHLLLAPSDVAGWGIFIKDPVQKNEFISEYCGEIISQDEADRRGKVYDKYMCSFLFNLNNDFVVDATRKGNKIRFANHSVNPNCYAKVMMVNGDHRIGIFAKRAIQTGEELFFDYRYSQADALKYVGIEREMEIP
T1 sequence (O75530 whole entry partner): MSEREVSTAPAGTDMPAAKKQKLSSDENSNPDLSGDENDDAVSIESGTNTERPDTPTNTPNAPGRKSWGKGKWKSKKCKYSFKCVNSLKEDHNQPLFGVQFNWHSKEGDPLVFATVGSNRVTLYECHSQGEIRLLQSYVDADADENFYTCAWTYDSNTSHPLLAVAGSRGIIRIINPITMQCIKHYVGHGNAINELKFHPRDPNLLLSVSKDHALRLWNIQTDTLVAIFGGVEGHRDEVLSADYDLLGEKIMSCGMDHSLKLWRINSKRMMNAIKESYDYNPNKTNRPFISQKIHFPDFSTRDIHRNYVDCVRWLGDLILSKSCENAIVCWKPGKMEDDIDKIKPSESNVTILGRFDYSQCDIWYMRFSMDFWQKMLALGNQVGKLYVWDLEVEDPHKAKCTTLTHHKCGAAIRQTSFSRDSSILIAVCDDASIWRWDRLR
T1 sequence (Q15022 whole entry partner): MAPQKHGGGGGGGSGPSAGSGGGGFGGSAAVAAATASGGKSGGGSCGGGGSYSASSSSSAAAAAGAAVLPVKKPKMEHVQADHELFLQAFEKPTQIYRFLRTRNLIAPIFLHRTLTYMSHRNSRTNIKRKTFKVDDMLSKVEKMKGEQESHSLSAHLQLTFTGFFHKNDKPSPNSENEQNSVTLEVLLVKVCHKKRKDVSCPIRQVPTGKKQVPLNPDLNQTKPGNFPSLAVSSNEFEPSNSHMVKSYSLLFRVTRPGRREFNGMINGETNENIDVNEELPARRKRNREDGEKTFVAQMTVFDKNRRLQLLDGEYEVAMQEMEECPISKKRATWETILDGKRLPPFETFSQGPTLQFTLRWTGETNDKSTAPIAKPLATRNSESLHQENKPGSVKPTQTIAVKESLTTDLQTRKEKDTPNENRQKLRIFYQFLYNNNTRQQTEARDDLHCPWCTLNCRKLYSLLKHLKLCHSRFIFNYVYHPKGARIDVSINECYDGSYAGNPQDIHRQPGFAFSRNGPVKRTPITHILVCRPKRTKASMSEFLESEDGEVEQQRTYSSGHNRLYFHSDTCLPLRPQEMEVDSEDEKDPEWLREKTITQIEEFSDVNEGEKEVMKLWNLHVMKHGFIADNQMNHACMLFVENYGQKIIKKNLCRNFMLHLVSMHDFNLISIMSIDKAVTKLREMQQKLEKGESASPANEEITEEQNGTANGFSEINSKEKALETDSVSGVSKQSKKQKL
T1 sequence (Q09028 whole entry partner): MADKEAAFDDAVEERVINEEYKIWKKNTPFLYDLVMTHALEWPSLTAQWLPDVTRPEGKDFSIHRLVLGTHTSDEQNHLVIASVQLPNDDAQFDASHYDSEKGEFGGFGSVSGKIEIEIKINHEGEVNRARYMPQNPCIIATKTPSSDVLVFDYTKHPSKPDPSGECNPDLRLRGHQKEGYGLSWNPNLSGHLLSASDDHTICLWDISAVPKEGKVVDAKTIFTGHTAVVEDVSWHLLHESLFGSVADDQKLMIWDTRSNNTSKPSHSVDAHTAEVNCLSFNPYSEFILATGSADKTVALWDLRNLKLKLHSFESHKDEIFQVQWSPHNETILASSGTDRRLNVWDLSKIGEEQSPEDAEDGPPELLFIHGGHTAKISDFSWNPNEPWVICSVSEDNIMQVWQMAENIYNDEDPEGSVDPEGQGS
T1 sequence (Q6ZN18 whole entry partner): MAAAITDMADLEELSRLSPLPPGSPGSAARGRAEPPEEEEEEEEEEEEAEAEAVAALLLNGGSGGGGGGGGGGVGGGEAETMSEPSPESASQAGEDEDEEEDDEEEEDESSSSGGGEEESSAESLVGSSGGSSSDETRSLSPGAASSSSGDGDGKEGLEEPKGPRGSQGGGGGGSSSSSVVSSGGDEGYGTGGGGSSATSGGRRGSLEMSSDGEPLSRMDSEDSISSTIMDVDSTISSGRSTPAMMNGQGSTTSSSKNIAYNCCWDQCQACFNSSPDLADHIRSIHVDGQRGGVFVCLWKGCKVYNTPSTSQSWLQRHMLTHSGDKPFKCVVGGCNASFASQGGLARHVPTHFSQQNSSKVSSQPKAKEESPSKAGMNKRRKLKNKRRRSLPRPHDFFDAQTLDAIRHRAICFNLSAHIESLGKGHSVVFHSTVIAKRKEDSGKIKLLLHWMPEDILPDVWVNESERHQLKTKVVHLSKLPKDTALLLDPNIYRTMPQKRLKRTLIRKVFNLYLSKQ

| SMILES | IC50 [nM] |
| --- | --- |
| Cc1cc(C)c(CNC(=O)c2cc(-c3cc4[nH]ncc4cn3)cc3c2c(C)cn3C(C)C)c(=O)[nH]1 [Ex 244, N-((4,6-dimethyl-2-oxo-1,2-dihydropyridin-3-yl)methyl)-1-isopropyl-3-methyl-6-(1H-pyrazolo[4,3-c]pyridin-6-yl)-1H-indole-4-carboxamide] | 29 |
| CCC(C)n1cc(C)c2c(C(=O)NCc3c(C)cc(C)[nH]c3=O)cc(-c3cccc(CN(C)C)c3)cc21 (centres unmarked) [Ex 272, 1-(sec-Butyl)-N-((4,6-dimethyl-2-oxo-1,2-dihydropyridin-3-yl)methyl)-6-(3-((dimethylamino)methyl)phenyl)-3-methyl-1H-indole-4-carboxamide] | 13 |
